Test results from patent US20240158383A1, “RIBONUCLEOTIDE REDUCTASE (RNR) INHIBITORS AND USES THEREOF” (Boundless Bio, Inc., priority 2021, published 2024).

Tests used:
[1] = tested on: pCHK1 (S345) in Colo320 DM cells; assay: CHK1 cellular activity (phospho-CHK1 AlphaLisa); type: cell-based, human; settings: Homo sapiens, COLO 320DM, 16 h, compound overnight (approximately 16 hours)
Procedure: Phospho-CHK1 cellular activity was measured as a marker of replication stress which is a consequence of RNR inhibition.
Colo320 DM cells (ATCC #CCL-220, derived from human colorectal adenocarcinoma, Dukes' type C) were seeded on a 96-well cell culture treated assay plate at a density of 50,000 cells/well in 200 μL of RPMI-1640 media supplemented with 10% Fetal Bovine Serum and incubated at 37 degrees Celsius overnight. The following day, test compound dilutions were added directly to the plated cells by a Tecan digital dispenser to a final DMSO concentration of <0.5% and incubated at 37 degrees Celsius overnight (approximately 16 hours). The following day all culture media is removed from the cells. 75 μL of 1× AlphaLisa lysis buffer is added to each well and plates are agitated on a shaker for 30 minutes at room temperature. The lysis of cells and detection of pCHK1 (S345) are performed with reagents contained within the AlphaLisa Sure Fire assay kit (Perkin Elmer #ALSU-PCHK1-A) according to the manufacturer's instructions. 10 μL of each lysate was then transferred to a white, 384-well assay plate (Perkin Elmer #6008280). 5 μL of Acceptor mix was then added to each well of lysate in the white, 384-well assay plate and incubated in the dark at room temperature for 60 minutes. 5 μL of Donor mix was then added to each well of the white, 384-well assay plate in subdued light and incubated at room temperature for 60 minutes. Plates are read on an Alpha Technology-compatible plate reader using standard AlphaLisa settings.

RNR (RNR1:RNR2) = RNR (RNR1:RNR2) (Homo sapiens (Human), UniProt P23921+P31350); assay: RNR enzyme activity, rapid-fire mass spectrometry (RFMS) assay; type: biochemical; settings: [RNR] 50 nM, 1:1 RNR1:RNR2, [CDP] 5 μM, [ATP] 1 mM, 37° C., 45 min
Sequence of RNR (RNR1:RNR2) (P23921 whole entry): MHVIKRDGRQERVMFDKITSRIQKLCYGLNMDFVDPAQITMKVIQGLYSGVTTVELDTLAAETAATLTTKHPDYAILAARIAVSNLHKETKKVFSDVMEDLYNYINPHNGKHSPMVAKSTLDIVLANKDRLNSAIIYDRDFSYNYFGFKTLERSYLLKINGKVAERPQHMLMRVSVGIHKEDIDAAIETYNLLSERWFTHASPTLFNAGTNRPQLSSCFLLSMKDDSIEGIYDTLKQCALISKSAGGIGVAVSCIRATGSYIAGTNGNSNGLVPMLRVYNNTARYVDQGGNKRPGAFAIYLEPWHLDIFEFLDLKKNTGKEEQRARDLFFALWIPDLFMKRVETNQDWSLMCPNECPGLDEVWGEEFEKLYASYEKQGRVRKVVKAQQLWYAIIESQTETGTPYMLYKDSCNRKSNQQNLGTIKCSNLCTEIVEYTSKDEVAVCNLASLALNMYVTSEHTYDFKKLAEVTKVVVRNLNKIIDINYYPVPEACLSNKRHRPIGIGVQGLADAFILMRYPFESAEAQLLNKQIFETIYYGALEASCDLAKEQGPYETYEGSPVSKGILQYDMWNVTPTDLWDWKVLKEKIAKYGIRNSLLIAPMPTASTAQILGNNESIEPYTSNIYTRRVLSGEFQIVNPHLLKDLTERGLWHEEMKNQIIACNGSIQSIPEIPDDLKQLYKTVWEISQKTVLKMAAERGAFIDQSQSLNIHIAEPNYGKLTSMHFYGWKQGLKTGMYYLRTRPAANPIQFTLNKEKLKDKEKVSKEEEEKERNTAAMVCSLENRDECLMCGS
Sequence of RNR (RNR1:RNR2) (P31350 whole entry): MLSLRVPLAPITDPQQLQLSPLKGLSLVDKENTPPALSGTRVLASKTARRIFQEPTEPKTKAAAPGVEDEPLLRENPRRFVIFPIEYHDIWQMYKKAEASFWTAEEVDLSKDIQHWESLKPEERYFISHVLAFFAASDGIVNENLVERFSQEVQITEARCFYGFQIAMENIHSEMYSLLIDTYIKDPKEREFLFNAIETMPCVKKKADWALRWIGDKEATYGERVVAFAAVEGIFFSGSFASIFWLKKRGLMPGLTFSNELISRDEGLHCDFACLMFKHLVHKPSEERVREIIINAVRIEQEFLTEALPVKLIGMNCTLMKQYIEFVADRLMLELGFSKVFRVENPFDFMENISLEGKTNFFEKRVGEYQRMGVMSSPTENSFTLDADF
Procedure: A rapid-fire mass spectrometry (RFMS) assay was used to assess RNR enzyme activity using a 384 well plate and a robotic platform.
The plate layout included two validated reference compounds (Triapine (3-AP) and Hydroxyurea (HU)): • A dose response in duplicate; top concentration: 5 μM (3-AP) and 250 μM (HU), semi-log • dilutions. • Spike wells in triplicate randomly spotted at four concentrations: • 250 μM, 100 μM, 30 μM and 2 μM for HU • 5 μM, 2 μM, 0.6 μM and 0.04 μM for 3-AP
First, the multidrop pipes were saturated for 30 minutes with enzymatic solution. Then 30 μL of Stop solution was distributed in column 24. Next, 15 μL of enzyme was distributed in column 1 to 24. Next, a pre-incubation step of 15 minutes at room temperature occurred, followed by distribution of 15 μL of substrate solution (column 1 to 24). Next, the plate was incubated for 45 minutes at 37° C. 30 μL of Stop solution was distributed to columns 1 to 23.
The final parameters for the enzyme reactions were: • Incubation: 37° C., 45 min • [CDP]: 5 μM; [ATP]: 1 mM; [NADPH]: No • [RNR]final: 50 nM with 1:1 (RNR1:RNR2) ratio • Final volume: 30 μL • Stop solution: 6% HCOOH containing 2 μM of 15
The compounds were screened at concentrations from 10 nM to 30 μM.

| IC50 [1] [µM] | IC50 (RNR (RNR1:RNR2)) [µM] | SMILES |
| --- | --- | --- |
| 50 to 100 | 0.1 to 1 | Cc1ccc(F)c([C@@H](C)[C@H](NS(=O)(=O)c2ccc(Cl)cc2CC(=O)N2CCOCC2)c2nn[nH]n2)c1C [Example 26, 4-chloro-N-((1S,2R)-2-(6-fluoro-2,3-dimethylphenyl)-1-(2H-tetrazol-5-yl)propyl)-2-(2-morpholino-2-oxoethyl)benzenesulfonamide] |
| 50 to 100 | – | Cc1ccc(F)c([C@@H](C)[C@H](NS(=O)(=O)c2ccc(Cl)cc2NC(C)C)c2nn[nH]n2)c1C [Example 6, 4-chloro-N-((1S,2R)-2-(6-fluoro-2,3-dimethylphenyl)-1-(2H-tetrazol-5-yl)propyl)-2-(isopropylamino)benzenesulfonamide] |
| 50 to 100 | 1 to 5 | Cc1ccc(F)c([C@@H](C)[C@H](NS(=O)(=O)c2ccc(F)c(C(N)=O)c2)c2nn[nH]n2)c1C [Example 38, 2-fluoro-5-(N-((1S,2R)-2-(6-fluoro-2,3-dimethylphenyl)-1-(2H-tetrazol-5-yl)propyl)sulfamoyl)benzamide] |
| 50 to 100 | 0.1 to 1 | Cc1ccc(F)c([C@@H](C)[C@H](NS(=O)(=O)c2ccc(Cl)c(C(C)(O)C(=O)N(C)C)c2)c2nn[nH]n2)c1C (stereo partly drawn) [Example 59, 2-(2-chloro-5-(N-((1S,2R)-2-(6-fluoro-2,3-dimethylphenyl)-1-(2H-tetrazol-5-yl)propyl)sulfamoyl)phenyl)-2-hydroxy-N,N-dimethylpropanamide] |
| 50 to 100 | 5 to 30 | Cc1ccc(F)c([C@@H](C)[C@H](NS(=O)(=O)c2cc(Cl)ccc2Cl)c2nn[nH]n2)c1C [Example 45] |
| 50 to 100 | ≤ 0.1 | Cc1ccc(F)c([C@@H](C)[C@H](NS(=O)(=O)c2c(Cl)cc(Cl)c3c2OCCN3C)c2nn[nH]n2)c1C [Example 28, 5,7-dichloro-N-((1S,2R)-2-(6-fluoro-2,3-dimethylphenyl)-1-(2H-tetrazol-5-yl)propyl)-4-methyl-3,4-dihydro-2H-benzo[b][1,4]oxazine-8-sulfonamide] |
| 50 to 100 | – | Cc1ccc(F)c([C@@H](C)[C@H](NS(=O)(=O)c2ccc(Cl)c([C@@H](F)C(=O)N(C)C)c2)c2nn[nH]n2)c1C [Example 66, (R)-2-(2-chloro-5-(N-((1S,2R)-2-(6-fluoro-2,3-dimethylphenyl)-1-(2H-tetrazol-5-yl)propyl)sulfamoyl)phenyl)-2-fluoro-N,N-dimethylacetamide] |
| 30 to 50 | 0.1 to 1 | CCc1cc(Cl)ccc1S(=O)(=O)N[C@H](c1nn[nH]n1)[C@H](C)c1c(F)ccc(C)c1C [Example 20, 4-chloro-2-ethyl-N-((1S,2R)-2-(6-fluoro-2,3-dimethylphenyl)-1-(2H-tetrazol-5-yl)propyl)benzenesulfonamide] |
| 10 to 30 | 0.1 to 1 | Cc1ccc(F)c([C@@H](C)[C@H](NS(=O)(=O)c2ccc(Cl)cc2Cl)c2nn[nH]n2)c1C [Example 39, 2,4-dichloro-N-((1S,2R)-2-(6-fluoro-2,3-dimethylphenyl)-1-(2H-tetrazol-5-yl)propyl)benzenesulfonamide] |
| 10 to 30 | 0.1 to 1 | COc1c(S(=O)(=O)N[C@H](c2nn[nH]n2)[C@H](C)c2c(F)ccc(C)c2C)ccc(Cl)c1F [Example 73, 4-chloro-3-fluoro-N-((1S,2R)-2-(6-fluoro-2,3-dimethylphenyl)-1-(2H-tetrazol-5-yl)propyl)-2-methoxybenzenesulfonamide] |
| 50 to 100 | 5 to 30 | COc1cc(Cl)ccc1S(=O)(=O)N[C@H](c1nnn(C)n1)[C@H](C)c1c(F)ccc(C)c1C [Example 35, 4-chloro-N-((1S,2R)-2-(6-fluoro-2,3-dimethylphenyl)-1-(2-methyl-2H-tetrazol-5-yl)propyl)-2-methoxybenzensulfonamide] |
| 10 to 30 | ≤ 0.1 | COc1nc(Cl)ccc1S(=O)(=O)N[C@H](c1nn[nH]n1)[C@H](C)c1c(F)ccc(C)c1C [Example 62, 6-chloro-N-((1S,2R)-2-(6-fluoro-2,3-dimethylphenyl)-1-(2H-tetrazol-5-yl)propyl)-2-methoxypyridine-3-sulfonamide] |
| 50 to 100 | – | Cc1ccc(F)c([C@@H](C)[C@H](NS(=O)(=O)c2ccc(Cl)c([C@H](F)C(=O)N(C)C)c2)c2nn[nH]n2)c1C [Example 67, (S)-2-(2-chloro-5-(N-((1S,2R)-2-(6-fluoro-2,3-dimethylphenyl)-1-(2H-tetrazol-5-yl)propyl)sulfamoyl)phenyl)-2-fluoro-N,N-dimethylacetamide] |
| – | 0.1 to 1 | Cc1ccc(F)c([C@H](C)[C@H](c2nn[nH]n2)c2c(S(N)(=O)=O)ccc(Cl)c2C#N)c1C [Example 51, 4-chloro-3-cyano-2-((1S,2R)-2-(6-fluoro-2,3-dimethylphenyl)-1-(2H-tetrazol-5-yl)propyl)benzenesulfonamide] |

Further lines, the molecule ahead of its results:

| SMILES | IC50 [1] [µM] | IC50 (RNR (RNR1:RNR2)) [µM] |
| --- | --- | --- |
| C=Cc1cc(Cl)ccc1S(=O)(=O)N[C@H](c1nn[nH]n1)[C@H](C)c1c(F)ccc(C)c1C [Example 63, 4-chloro-N-((1S,2R)-2-(6-fluoro-2,3-dimethylphenyl)-1-(2H-tetrazol-5-yl)propyl)-2-vinylbenzenesulfonamide] | 30 to 50 | – |
| Cc1ccc(F)c([C@@H](C)[C@H](NS(=O)(=O)c2c(F)cc(Cl)cc2F)c2nn[nH]n2)c1C [Example 56, 4-chloro-2,6-difluoro-N-((1S,2R)-2-(6-fluoro-2,3-dimethylphenyl)-1-(2H-tetrazol-5-yl)propyl)benzenesulfonamide] | 50 to 100 | 0.1 to 1 |
| Cc1ccc(F)c([C@@H](C)[C@H](NS(=O)(=O)c2ccc(Cl)cc2C(N)=O)c2nn[nH]n2)c1C [Example 2, 5-chloro-2-(N-((1S,2R)-2-(6-fluoro-2,3-dimethylphenyl)-1-(2H-tetrazol-5-yl)propyl)sulfamoyl)benzamide] | 50 to 100 | ≤ 0.1 |
| CNc1cc(Cl)ccc1S(=O)(=O)N[C@H](c1nn[nH]n1)[C@H](C)c1c(F)ccc(C)c1C [Example 75, 4-chloro-N-((1S,2R)-2-(6-fluoro-2,3-dimethylpehnyl)-1-(2H-tetrazol-5-yl)propyl)-2-(methylamino)benzenesulfonamide] | 10 to 30 | 0.1 to 1 |
| Cc1ccc(F)c(S(=O)(=O)N[C@H](c2nn[nH]n2)[C@H](C)c2c(F)ccc(C)c2C)c1 [Example 52, 2-fluoro-N-((1S,2R)-2-(6-fluoro-2,3-dimethylpehnyl)-1-(2H-tetrazol-5-yl)propyl)-5-methylbenzenesulfonamide] | – | 1 to 5 |
| Cc1ccc(F)c([C@@H](C)[C@H](NS(=O)(=O)c2ccc(Cl)cc2C(F)F)c2nn[nH]n2)c1C [Example 50, 4-chloro-2-(difluoromethyl)-N-((1S,2R)-2-(6-fluoro-2,3-dimethylphenyl)-1-(2H-tetrazol-5-yl)propyl)benzenesulfonamide] | 30 to 50 | 0.1 to 1 |
| Cc1ccc(F)c([C@@H](C)[C@H](NS(=O)(=O)c2ccc(Cl)c3c2OCC[C@H]3O)c2nn[nH]n2)c1C [Example 11, (R)-5-chloro-N-((1S,2R)-2-(6-fluoro-2,3-dimethylphenyl)-1-(2H-tetrazol-5-yl)propyl)-4-hydroxychromane-8-sulfonamide] | 50 to 100 | ≤ 0.1 |
| COc1c(S(=O)(=O)N[C@H](c2nn[nH]n2)[C@H](C)c2c(F)ccc(C)c2C)ccc(Cl)c1[C@@H](C)O (racemic) [Example 17, rac-4-chloro-N-((1R,2S)-2-(6-fluoro-2,3-dimethylphenyl)-1-(2H-tetrazol-5-yl)propyl)-3-((S)-1-hydroxyethyl)-2-methoxybenzenesulfonamide] | 10 to 30 | ≤ 0.1 |
| Cc1ccc(F)c([C@@H](C)[C@H](NS(=O)(=O)c2ccc(Cl)cc2C(=O)N(C)C)c2nn[nH]n2)c1C [Example 68, 5-chloro-2-(N-((1S,2R)-2-(6-fluoro-2,3-dimethylphenyl)-1-(2H-tetrazol-5-yl)propyl)sulfamoyl)-N,N-dimethylbenzamide] | 50 to 100 | – |
| Cc1ccc(F)c([C@@H](C)[C@H](NS(=O)(=O)c2ccc(Cl)cc2Br)c2nn[nH]n2)c1C [Example 65, 2-bromo-4-chloro-N-((1S,2R)-2-(6-fluoro-2,3-dimethylphenyl)-1-(2H-tetrazol-5-yl)propyl)benzenesulfonamide] | 10 to 30 | – |
